Results published in the supplement of paper PMC11451515.

System: P12-Ichikawa
Assay: cell viability relative to DMSO control; higher = less cytotoxic
Conditions: 48 h
Method in brief: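 NOMO1 or SEM (500 cells/well) or P12-Ichikawa (1000 cells/well) leukemia cells were adapted for at least four passages in each medium. They were seeded in 1536-well plates (5 μl) and pin-dosed with library compounds in DMSO over an 11-point threefold series, 47 μM to 0.79 nM. CellTiter-Glo One luminescence was read after 48 h at 37°C. Viability is the per-plate percentage relative to DMSO wells, with cell-free wells as background.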

[1] = HPLM + 10% dialyzed FBS, 0.000781 µM
[2] = HPLM + 10% dialyzed FBS, 0.00234 µM
[3] = HPLM + 10% dialyzed FBS, 0.00702 µM
[4] = HPLM + 10% dialyzed FBS, 0.0211 µM
[5] = HPLM + 10% dialyzed FBS, 0.0632 µM
[6] = HPLM + 10% dialyzed FBS, 0.19 µM
[7] = HPLM + 10% dialyzed FBS, 0.569 µM
[8] = HPLM + 10% dialyzed FBS, 1.71 µM
[9] = HPLM + 10% dialyzed FBS, 5.12 µM
[10] = HPLM + 10% dialyzed FBS, 15.4 µM
[11] = HPLM + 10% dialyzed FBS, 46.1 µM
[12] = RPMI 5 mM glucose + 10% FBS, 0.000781 µM
[13] = RPMI 5 mM glucose + 10% FBS, 0.00234 µM
[14] = RPMI 5 mM glucose + 10% FBS, 0.00702 µM
[15] = RPMI 5 mM glucose + 10% FBS, 0.0211 µM
[16] = RPMI 5 mM glucose + 10% FBS, 0.0632 µM
[17] = RPMI 5 mM glucose + 10% FBS, 0.19 µM
[18] = RPMI 5 mM glucose + 10% FBS, 0.569 µM
[19] = RPMI 5 mM glucose + 10% FBS, 1.71 µM
[20] = RPMI 5 mM glucose + 10% FBS, 5.12 µM
[21] = RPMI 5 mM glucose + 10% FBS, 15.4 µM
[22] = RPMI 5 mM glucose + 10% FBS, 46.1 µM
[23] = RPMI 5 mM glucose + 10% dialyzed FBS, 0.000781 µM
[24] = RPMI 5 mM glucose + 10% dialyzed FBS, 0.00234 µM
[25] = RPMI 5 mM glucose + 10% dialyzed FBS, 0.00702 µM
[26] = RPMI 5 mM glucose + 10% dialyzed FBS, 0.0211 µM
[27] = RPMI 5 mM glucose + 10% dialyzed FBS, 0.0632 µM
[28] = RPMI 5 mM glucose + 10% dialyzed FBS, 0.19 µM
[29] = RPMI 5 mM glucose + 10% dialyzed FBS, 0.569 µM
[30] = RPMI 5 mM glucose + 10% dialyzed FBS, 1.71 µM
[31] = RPMI 5 mM glucose + 10% dialyzed FBS, 5.12 µM
[32] = RPMI 5 mM glucose + 10% dialyzed FBS, 15.4 µM
[33] = RPMI 5 mM glucose + 10% dialyzed FBS, 46.1 µM

Compound	cell viability [1] [%]	cell viability [2] [%]	cell viability [3] [%]	cell viability [4] [%]	cell viability [5] [%]	cell viability [6] [%]	cell viability [7] [%]	cell viability [8] [%]	cell viability [9] [%]	cell viability [10] [%]	cell viability [11] [%]	cell viability [12] [%]	cell viability [13] [%]	cell viability [14] [%]	cell viability [15] [%]	cell viability [16] [%]	cell viability [17] [%]	cell viability [18] [%]	cell viability [19] [%]	cell viability [20] [%]	cell viability [21] [%]	cell viability [22] [%]	cell viability [23] [%]	cell viability [24] [%]	cell viability [25] [%]	cell viability [26] [%]	cell viability [27] [%]	cell viability [28] [%]	cell viability [29] [%]	cell viability [30] [%]	cell viability [31] [%]	cell viability [32] [%]	cell viability [33] [%]
O=C([O-])C(O)Cc1ccc(O)c(O)c1 (stereo unspecified)	109	107	99.1	110	111	106	104	93.7	95.7	90.2	90.1	101	96.6	107	99.6	99.4	98.3	92.6	90.2	99.9	81.8	83.3	95	99.2	99.9	95.5	92.3	96.8	93.2	87.9	89	74.6	83.5
CN1[C@@H]2CC(OC(=O)[C@@H](CO)c3ccccc3)C[C@H]1[C@H]1O[C@H]12 (stereo partly specified)	97	94.9	103	103	101	101	101	103	98.7	92.9	102	98.8	100	102	106	107	105	106	110	98.8	104	104	94.3	97.1	93.1	95.2	99.2	96.3	93.3	95	101	89.5	105
CCCc1nc(C(C)(C)O)c(C(=O)O)n1Cc1ccc(-c2ccccc2-c2nn[nH]n2)cc1	111	115	112	117	115	125	120	119	122	125	128	109	114	102	110	116	130	124	123	126	138	109	103	70.5	107	107	117	118	116	117	118	128	135
CC1(C)O[C@@H]2C[C@H]3[C@@H]4CCC5=CC(=O)C=C[C@]5(C)[C@@]4(F)[C@@H](O)C[C@]3(C)[C@]2(C(=O)CO)O1	101	105	104	100	86.2	76.7	55.6	63.2	39.4	18.5	8.39	111	115	108	115	76.5	70.2	55.3	55.9	40	17.9	7.85	99.5	108	100	93.2	77.6	57.9	47.4	52.6	34	30.1	9.61
OC[C@H]1O[C@@H](O[C@@H]2[C@@H](CO)O[C@](O)(CO)[C@H]2O)[C@H](O)[C@@H](O)[C@H]1O	98.3	104	95.2	105	110	97	101	97.8	88.8	71.1	93.4	93.4	97.2	97	98.2	100	96.4	99	89.8	94.5	65.2	93.6	90.9	93	92.8	99.5	100	98.5	105	91.5	86	62.2	77.9
CN(c1ncccc1CNc1nc(Nc2ccc3c(c2)CC(=O)N3)ncc1C(F)(F)F)[S+](C)(=O)[O-]	111	117	109	109	112	112	103	109	112	101	57.8	111	113	116	110	121	113	114	114	100	88.9	50.1	115	118	117	114	117	108	114	114	110	105	48.2
O=C(NOCC(O)CO)c1cc(Br)c(F)c(F)c1Nc1ccc(I)cc1F (stereo unspecified)	82.9	84.2	81.7	87.8	83.8	74.8	74.4	68.2	64.2	73.9	52.3	74.6	87.6	79	73.8	80.3	67.9	63.8	62.5	56.2	66.4	54.5	76.2	79.2	73.9	81.9	74.3	71.2	65.6	71.8	66.1	76.6	58.7
C=CC(=O)Nc1cccc(Oc2nc(Nc3ccc(N4CCN(C)CC4)cc3)ncc2Cl)c1	109	123	123	122	131	130	122	113	102	22.4	52.5	–	–	–	–	–	–	–	–	–	–	–	–	–	–	–	–	–	–	–	–	–	–
Cc1nc(NC(=O)N2CCC[C@H]2C(N)=O)sc1-c1ccnc(C(C)(C)C(F)(F)F)c1	96.4	100	97.1	93.3	97.7	92.4	89.8	87.6	72.2	62.9	83.2	89.4	89.2	95.4	93.7	90.6	86.9	79.6	76.2	57.5	48.3	77.8	97.9	92.4	94.4	91.8	93.4	81.5	86.7	78.9	63.7	51.6	83.3
CCC1(C)CC(=O)NC1=O (stereo unspecified)	101	103	104	104	108	116	100	102	94.9	96.7	94.7	99.4	105	115	101	111	105	102	99.3	106	92	87.4	101	101	101	97.3	104	104	102	96.3	96.3	97.1	88.9
CC(C)C(C)/C=C/C(C)C1CCC2C3=CC=C4CC(O)CCC4(C)C3CCC21C (stereo unspecified)	110	105	97.8	109	99.5	96.6	111	94.4	106	97.8	97.3	99.1	99.4	98.3	106	96.7	98.4	102	97.6	93.5	94.5	92.2	91.1	94.8	102	97.1	103	96.7	97.5	96.8	92.8	91	89.4
CCc1cc(Nc2nccc(-c3c(-c4ccc(OC)c(C(=O)Nc5c(F)cccc5F)c4)nc4ccccn34)n2)c(OC)cc1N1CCC(N2CCN([S+](C)(=O)[O-])CC2)CC1	97.9	108	100	112	107	112	110	110	112	87.1	39.8	98.3	101	106	105	107	113	111	113	109	85.1	37.9	108	116	112	114	107	107	109	125	115	87.4	49.6
CC(N[C@H]1C[C@@H]1c1ccccc1)c1ccc2c(c1)OCCO2 (stereo partly specified)	119	117	121	128	119	118	116	113	107	112	104	–	–	–	–	–	–	–	–	–	–	–	–	–	–	–	–	–	–	–	–	–	–
O=NN(CCCl)C(=O)NC1CCCCC1	102	106	107	96.4	107	107	112	111	111	103	105	102	96.5	97.1	97.3	116	113	104	97.2	112	107	111	97.4	105	105	102	113	108	105	110	105	103	113
COc1nccc(-c2c(-c3ccc(F)cc3)ncn2C2CCNCC2)n1	99.1	108	113	110	113	100	96	100	104	90.6	80.2	109	112	106	120	117	106	108	98.2	109	104	90.5	98.2	111	117	111	119	110	106	98.9	104	94.7	80.7
